Results from patent publication US20180286508A1, “DETERMINATION OF FAVORABLE DATE(S) FOR THERAPEUTIC TREATMENT DELIVERY” (Mayo Foundation for Medical Education and Research, priority 2015, published 2018).
“And” between values parts separate entries of the source, which are not always exact repeats. Equal entries are not always repeated.

How the values were obtained:
[1] = test system: CD8+ effector T-cells and dendritic cells (DCs); details: therapeutical doses, in vitro; cited from earlier work
[2] = test system: non proliferating peripheral blood lymphocytes; details: therapeutical doses, in vitro; cited from earlier work
[3] = test system: patients with metastatic melanoma (stage IV); assay: Phase II clinical trial MC1076 of timed administration of TMZ; type: in vivo, human; details: for number of patients with PFS >4 months: 17 patients
Description: Eligible patients had unresectable, histologically confirmed stage IV disease, age over 18 years, measurable disease as defined by the Response Evaluation Criteria in Solid Tumors (RECIST), Eastern Cooperative Oncology Group (ECOG) performance status of 0-2, and life expectancy≥3 months (See Table 10). Both previously untreated patients and patients who have had prior therapy for their metastatic disease (excluding prior exposure to TMZ) were eligible. All patients provided signed informed written consent, and the study was approved by the Mayo Clinic Rochester Institutional Review Board. The TMZ dose was 150 mg/m2 on days 1-5 of cycle 1 and was increased to 200 mg/m2 on days 1-5 each month for all subsequent cycles if well tolerated. Patients were treated every 28 days until progression, unacceptable toxicity or patient refusal. Prior to initiation of first chemotherapy cycle, eligible patients underwent serial daily peripheral blood testing for 10 days of 69 immune biomarkers (42 cytokines, and 27 immune cell subtypes) per time point/patient. At the end of the sample collections, all data was jointly analyzed and a day for individualized TMZ delivery was calculated according to the proposed model (below). Patients received their therapy during the time, predicted by the model. All patients were followed for clinical outcomes.
Time-dependent profiles of blood concentration of IL-12p70, CD197/CD206, IL-1ra were built based on a series of pre-treatment measurements. The data was fitted to a sine curve and the extrapolated for a period of 10 days. Chemotherapy was initiated on the day when the extrapolated value of the combination of these immune parameters was at maximum.
The MC1076 study was designed to assess the anti-tumor activity of timed administration of TMZ. A two-stage phase II clinical trial design will be used to test the hypothesis that the 4 month PFS rate is at most 45% against the alternative hypothesis that the 4 month PFS rate is at least 65%. Progression-free survival was defined as the time from registration to documentation of disease progression or death without disease progression documented.
Analysis of infradian (multi-day) dynamics in systemic immunity of patients with metastatic melanoma. Based on data, both published and from our lab, we hypothesized that the anti-tumor systemic immune response in patients with cancer is not a static but a dynamic event. In order to study the global temporal behavior of systemic anti-tumor immunity, we conducted a phase II clinical trial (MC1076; NCT01328535). In this study, patients with metastatic melanoma underwent a period of immunological monitoring consisting of 10 daily PB collections (10 mL) over 12 days prior to initiation of therapy with TMZ. There was no blood collection on weekend days. At the end of the sample collection period, samples were batched analyzed (to minimize inter-assay variability for a given patient) for measurement of dynamic changes of plasma cytokines and immune cell subsets using established, standardized, and Good Laboratory Practice (GLP)-validated methodology in our laboratory.^35 Time-dependent profiles of immune variables (cytokines and immune cell subsets) were then analyzed and an optimal day for initiation of TMZ therapy was prospectively computed by the algorithm described below. […]

[4] = standard TMZ doses, 200 mg/m2 daily over 5 days, cycles every 28 days; cited from earlier work
[5] = test system: patients with unresectable stage IV malignant melanoma; assay: Clinical trial of timed TMZ chemotherapy (timed on CRP oscillation) in stage IV melanoma patients; type: in vivo, human
Description: In an example clinical trial described herein, the patient population included patients with unresectable stage IV malignant melanoma. Eligible patients had unresectable, histologically confirmed stage IV disease, age over 18 years, measurable disease as defined by the Response Evaluation Criteria in Solid Tumors (RECIST), Eastern Cooperative Oncology Group (ECOG) performance status (PS) of 0-2, and life expectancy ≥3 months. Both newly diagnosed, previously untreated patients, as well as patients who have had prior therapy for their metastatic disease were enrolled.
Treatment was initiated with temozolomide (TMZ) 150 mg/m^2 on days 1-5 on cycle 1 and the dose was increased to 200 mg/m^2 for all subsequent cycles if tolerated. Patients were treated every 4 weeks until progression, unacceptable toxicity or patient refusal. Prior to initiation of first chemotherapy cycle, eligible patients underwent peripheral blood testing for immunological biomarkers (immune variables) every 2-3 days for a period of two weeks. The blood samples were tested for a total of 52 variables; that is, 52 measurements of cytokine concentrations and cell counts in blood samples.
The time series of six CRP concentration measurements was fitted to a sine curve. The curve was then extrapolated for two periods and the next consecutive peaks of CRP concentration were predicted. Based on the periodicity of CRP oscillations, TMZ chemotherapy was initiated prior to the estimated time of the next CPR peak, or on day 14 post-registration if the peak could not be identified.
The purpose of the curve fitting analysis is to determine whether any of the measured immune variables change in a predictable fashion following a cyclical pattern (dynamic equilibrium of immunity and cancer). Therefore, the goal of the curve fitting analysis is to assess whether concentrations of plasma cytokines/chemokines and immune cells fluctuate, and if so, to determine whether these fluctuations follow a mathematically predictable cyclical pattern. To that end, the plasma levels for the 52 immune variables ([…] different cytokines/chemokines/growth factors and the percentage of 22 immune cell subsets) in serial blood samples collected every 2-3 days prior to initiation of TMZ therapy were measured in 10 patients with metastatic malignant melanoma. […] Technical reproducibility was assessed by the coefficient of variation among duplicates (average coefficient of variation was 5.13% for 1593 data points).

[6] = LMR <1 on the day of TMZ initiation
[7] = LMR >1 on the day of TMZ initiation

## Cn1nnc2c(C(N)=O)ncn2c1=O [TMZ, temozolomide]
[1]
  impairment of the function of CD8+ effector T-cells and dendritic cells: did not impair
[2]
  impairment of non proliferating peripheral blood lymphocytes: did not impair
[3]; [6]
  number of patients with PFS <4 months: 7
  number of patients with PFS >4 months: 1
[3]; [7]
  number of patients with PFS <4 months: 3
  number of patients with PFS >4 months: 6
[3]; Table 11, one line per patient, 24 patients, time from registration to progression, CR = complete response
  PFS: 644 days and 242 days and 184 days and 47 days and 83 days and 301 days and 136 days and 752 days and 102 days and 78 days and 39 days and 107 days and 72 days (2×) and 53 days and 48 days and 80 days and 73 days and 130 days and 77 days and 133 days and 198 days
[4]
  serum concentrations: up to 50 μM
[5]; Table 4, one line per patient, 8 patients with metastatic cutaneous melanoma, TMZ 150 to 200 mg/m^2 days 1-5 every 4 weeks
  PFS: 70 days and 68 days and 37 days and 916 days and 748 days and 132 days and 91 days and 77 days
[5]; Table 6, one line per patient, same 8 melanoma patients
  PFS: 37 days and 91 days and 32 days and 77 days and 916 days and 841 days and 68 days and 70 days
[5]; four patients with sum of ranks of IL12p70 and CD197/CD206 above 15
  average PFS: 68 days
[5]; four patients with sum of ranks of IL12p70 and CD197/CD206 below 15
  average PFS: 466 days
[5]; two patients with disorganized (non-curve-fitting) anti-tumor immune responses
  PFS: 71 days and 74 days
